In patent US12419873B2, “Use of JAK inhibitors in preparation of drugs for treating JAK kinase-related diseases” (ZHUHAI UNITED LABORATORIES CO., LTD., priority 2020, dated 2025):

Key:
JAK3 = JAK3 (Homo sapiens (Human), UniProt P52333); assay: In vitro activity test of JAK3 kinase; type: biochemical
Protocol: (§1) Recombinant human JAK1, JAK2, JAK3, TyK2 protease, main instruments and reagents were provided by Eurofins in the UK
(§2) All compounds were prepared into a 100% DMSO solution and reached 50 times the final determined concentration. The test compound was diluted by 3 times the concentration gradient, and the final concentration was 10 μM to 0.001 μM, 9 concentrations in total, and the content of DMSO in the detection reaction was 2%. The working stock solution of the compound was added to a determination hole as the first component of the reaction, and then the remaining components were added according to the detailed scheme determination below.
(§3) Mg/ATP mixture was added to start the reaction. After incubation at room temperature for 40 minutes, 0.5% phosphoric acid was added to stop the reaction.

JAK2 = JAK2 (Homo sapiens (Human), UniProt O60674); assay: In vitro activity test of JAK2 kinase; conditions: read-out: JAK2 (IC50)
TYK2 = TYK2 (Homo sapiens (Human), UniProt P29597); assay: In vitro activity test of TYK2 kinase; type: biochemical
Protocol: as §1, §2, §3

JAK1 = JAK1 (Homo sapiens (Human), UniProt P23458); assay: In vitro activity test of JAK1 kinase; type: biochemical
Protocol: as §1, §2, §3

Sequence of JAK3 (P52333 whole entry): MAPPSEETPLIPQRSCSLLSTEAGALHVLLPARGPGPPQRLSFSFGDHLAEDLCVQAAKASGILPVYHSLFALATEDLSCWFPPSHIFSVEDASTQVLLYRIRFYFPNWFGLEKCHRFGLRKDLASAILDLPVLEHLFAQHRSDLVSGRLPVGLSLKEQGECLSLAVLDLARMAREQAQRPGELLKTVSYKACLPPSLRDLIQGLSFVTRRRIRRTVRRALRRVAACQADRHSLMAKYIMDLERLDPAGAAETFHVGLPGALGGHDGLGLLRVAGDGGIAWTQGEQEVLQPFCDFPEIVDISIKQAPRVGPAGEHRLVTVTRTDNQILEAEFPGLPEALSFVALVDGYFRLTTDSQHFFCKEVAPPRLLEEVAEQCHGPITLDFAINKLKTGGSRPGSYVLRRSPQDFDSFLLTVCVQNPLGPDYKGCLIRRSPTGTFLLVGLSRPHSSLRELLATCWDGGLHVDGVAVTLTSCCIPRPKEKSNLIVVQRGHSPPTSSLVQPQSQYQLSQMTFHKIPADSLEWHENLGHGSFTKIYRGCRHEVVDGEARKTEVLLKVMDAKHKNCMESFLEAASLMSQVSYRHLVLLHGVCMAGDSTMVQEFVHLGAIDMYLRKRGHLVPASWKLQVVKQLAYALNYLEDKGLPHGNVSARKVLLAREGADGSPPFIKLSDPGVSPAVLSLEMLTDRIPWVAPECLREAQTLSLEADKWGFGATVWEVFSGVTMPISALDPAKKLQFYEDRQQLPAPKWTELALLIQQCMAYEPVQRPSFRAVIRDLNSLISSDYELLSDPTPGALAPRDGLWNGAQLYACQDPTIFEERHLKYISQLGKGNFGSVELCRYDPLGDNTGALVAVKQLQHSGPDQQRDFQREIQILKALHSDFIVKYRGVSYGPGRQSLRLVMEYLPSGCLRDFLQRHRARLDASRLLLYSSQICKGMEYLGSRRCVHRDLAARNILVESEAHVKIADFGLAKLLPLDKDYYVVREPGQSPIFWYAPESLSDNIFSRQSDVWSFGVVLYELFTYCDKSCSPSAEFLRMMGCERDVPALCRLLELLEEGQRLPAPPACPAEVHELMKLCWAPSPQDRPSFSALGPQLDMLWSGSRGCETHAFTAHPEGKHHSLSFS
Sequence of JAK2 (O60674 whole entry): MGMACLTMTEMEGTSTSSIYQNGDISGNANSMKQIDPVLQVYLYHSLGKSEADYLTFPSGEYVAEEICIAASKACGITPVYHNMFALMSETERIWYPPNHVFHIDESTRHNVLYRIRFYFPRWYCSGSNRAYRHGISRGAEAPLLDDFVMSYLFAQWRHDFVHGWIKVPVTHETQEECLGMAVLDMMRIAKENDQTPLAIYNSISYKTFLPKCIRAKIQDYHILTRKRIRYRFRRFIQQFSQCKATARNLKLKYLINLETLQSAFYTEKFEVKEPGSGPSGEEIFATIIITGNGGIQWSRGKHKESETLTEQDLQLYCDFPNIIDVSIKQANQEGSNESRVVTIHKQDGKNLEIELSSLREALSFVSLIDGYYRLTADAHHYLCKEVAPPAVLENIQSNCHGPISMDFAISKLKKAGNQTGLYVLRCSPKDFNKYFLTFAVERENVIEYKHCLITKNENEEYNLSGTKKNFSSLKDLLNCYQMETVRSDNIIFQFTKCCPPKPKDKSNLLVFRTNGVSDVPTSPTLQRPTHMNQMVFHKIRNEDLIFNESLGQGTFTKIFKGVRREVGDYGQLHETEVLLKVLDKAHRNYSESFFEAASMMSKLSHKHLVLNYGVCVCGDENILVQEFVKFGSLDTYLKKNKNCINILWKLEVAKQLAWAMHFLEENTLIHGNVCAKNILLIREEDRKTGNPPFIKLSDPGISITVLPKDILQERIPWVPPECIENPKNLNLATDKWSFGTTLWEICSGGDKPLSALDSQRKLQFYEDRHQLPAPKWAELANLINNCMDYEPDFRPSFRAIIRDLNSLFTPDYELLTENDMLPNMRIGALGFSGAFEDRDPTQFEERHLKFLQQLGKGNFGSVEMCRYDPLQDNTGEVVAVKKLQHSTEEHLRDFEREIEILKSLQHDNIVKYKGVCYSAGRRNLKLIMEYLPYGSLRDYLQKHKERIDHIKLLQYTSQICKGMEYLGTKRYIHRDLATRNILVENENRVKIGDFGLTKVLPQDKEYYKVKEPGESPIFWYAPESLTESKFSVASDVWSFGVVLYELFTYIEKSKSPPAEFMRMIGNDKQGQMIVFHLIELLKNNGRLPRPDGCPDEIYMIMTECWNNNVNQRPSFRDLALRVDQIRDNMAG
Sequence of JAK1 (P23458 whole entry): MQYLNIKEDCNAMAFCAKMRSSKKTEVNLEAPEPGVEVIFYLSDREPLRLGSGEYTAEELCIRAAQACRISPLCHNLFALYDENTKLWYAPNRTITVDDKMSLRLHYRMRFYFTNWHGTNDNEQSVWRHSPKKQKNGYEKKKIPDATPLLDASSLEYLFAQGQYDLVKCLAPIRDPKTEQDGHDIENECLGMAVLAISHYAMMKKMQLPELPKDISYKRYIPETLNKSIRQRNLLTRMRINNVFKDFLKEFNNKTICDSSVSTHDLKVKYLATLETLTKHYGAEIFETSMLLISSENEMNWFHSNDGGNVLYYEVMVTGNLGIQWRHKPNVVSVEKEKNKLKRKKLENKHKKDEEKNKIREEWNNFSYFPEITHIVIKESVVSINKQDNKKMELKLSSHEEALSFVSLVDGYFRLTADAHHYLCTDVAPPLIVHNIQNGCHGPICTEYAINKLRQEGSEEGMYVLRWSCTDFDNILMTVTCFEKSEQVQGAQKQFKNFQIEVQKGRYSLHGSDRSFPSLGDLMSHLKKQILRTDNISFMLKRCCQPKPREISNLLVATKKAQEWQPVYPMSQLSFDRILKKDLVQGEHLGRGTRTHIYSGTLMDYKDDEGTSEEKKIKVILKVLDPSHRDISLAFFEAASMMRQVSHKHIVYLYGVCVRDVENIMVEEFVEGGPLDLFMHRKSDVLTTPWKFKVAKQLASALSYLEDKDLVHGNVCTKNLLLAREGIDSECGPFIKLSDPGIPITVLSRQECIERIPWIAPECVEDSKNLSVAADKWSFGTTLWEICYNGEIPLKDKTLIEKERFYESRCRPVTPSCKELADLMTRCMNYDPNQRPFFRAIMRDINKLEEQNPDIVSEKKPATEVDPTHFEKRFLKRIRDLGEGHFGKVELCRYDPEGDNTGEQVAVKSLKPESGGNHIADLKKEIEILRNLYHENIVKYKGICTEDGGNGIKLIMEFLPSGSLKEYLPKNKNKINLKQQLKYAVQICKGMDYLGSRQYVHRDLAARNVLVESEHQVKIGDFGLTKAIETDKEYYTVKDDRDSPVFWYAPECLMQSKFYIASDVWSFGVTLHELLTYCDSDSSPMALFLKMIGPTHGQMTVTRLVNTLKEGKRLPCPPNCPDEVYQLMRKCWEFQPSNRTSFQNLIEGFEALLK
Sequence of TYK2 (P29597 whole entry): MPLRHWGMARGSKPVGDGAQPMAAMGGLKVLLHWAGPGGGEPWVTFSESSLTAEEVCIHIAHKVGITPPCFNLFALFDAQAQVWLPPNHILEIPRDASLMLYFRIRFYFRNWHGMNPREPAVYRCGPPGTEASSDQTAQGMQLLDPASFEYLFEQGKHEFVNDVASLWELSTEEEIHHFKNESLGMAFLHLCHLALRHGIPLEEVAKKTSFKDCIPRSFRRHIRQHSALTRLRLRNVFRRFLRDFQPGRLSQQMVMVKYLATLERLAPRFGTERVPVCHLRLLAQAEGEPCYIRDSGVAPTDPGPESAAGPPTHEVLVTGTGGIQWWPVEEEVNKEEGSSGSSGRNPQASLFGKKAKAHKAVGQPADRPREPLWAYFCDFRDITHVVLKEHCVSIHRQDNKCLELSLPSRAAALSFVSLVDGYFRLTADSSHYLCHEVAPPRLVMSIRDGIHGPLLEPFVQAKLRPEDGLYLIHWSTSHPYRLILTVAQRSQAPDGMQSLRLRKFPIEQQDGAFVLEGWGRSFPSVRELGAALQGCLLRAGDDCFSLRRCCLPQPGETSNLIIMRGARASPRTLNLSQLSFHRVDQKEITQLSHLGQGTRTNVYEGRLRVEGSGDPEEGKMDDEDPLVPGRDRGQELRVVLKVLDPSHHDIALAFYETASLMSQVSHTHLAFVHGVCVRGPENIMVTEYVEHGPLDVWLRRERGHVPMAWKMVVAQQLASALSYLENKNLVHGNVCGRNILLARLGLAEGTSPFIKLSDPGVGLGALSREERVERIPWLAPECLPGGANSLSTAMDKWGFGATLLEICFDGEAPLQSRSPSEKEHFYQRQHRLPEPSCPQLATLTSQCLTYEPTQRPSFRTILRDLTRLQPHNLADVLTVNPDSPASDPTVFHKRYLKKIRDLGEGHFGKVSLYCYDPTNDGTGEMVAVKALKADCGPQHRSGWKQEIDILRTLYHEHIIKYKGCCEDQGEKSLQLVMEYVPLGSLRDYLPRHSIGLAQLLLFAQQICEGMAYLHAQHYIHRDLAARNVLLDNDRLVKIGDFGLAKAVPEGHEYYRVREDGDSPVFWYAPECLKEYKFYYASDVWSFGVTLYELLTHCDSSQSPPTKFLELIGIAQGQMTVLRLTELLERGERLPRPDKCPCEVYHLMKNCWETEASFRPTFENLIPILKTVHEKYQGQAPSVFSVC

| SMILES | IC50 (JAK3) | IC50 (JAK2) | IC50 (TYK2) | IC50 (JAK1) |
| --- | --- | --- | --- | --- |
| O=C(Nc1nc2cccc([C@H]3CCC4(CCN(C(=O)[C@@H]5CC5(F)F)CC4)C3)n2n1)C1CC1 (single isomer, unassigned) [Compound 6-7] | 9390 nM | 998 nM | 829 nM | 63 nM |
| O=C(Nc1nc2cccc([C@@H]3CCC4(CCN(C(=O)[C@@H]5CC5(F)F)CC4)C3)n2n1)C1CC1 (single isomer, unassigned) [Compound 6-8] | > 10000 nM | 1920 nM | 570 nM | 381 nM |
| N#CCC(=O)N1CC2(CCC(F)(c3cccc4nc(NC(=O)C5CC5)nn34)CC2)C1 [Compound 4-6] | 8450 nM | 2010 nM | 307 nM | 170 nM |
| O=C(Nc1nc2cccc(C3CCC4(CC3)CN(C(=O)[C@H]3CC3(F)F)C4)n2n1)[C@H]1CC1(F)F [Compound 8-6] | 7640 nM | 110 nM | 127 nM | 14 nM |
| N#CCN1CC2(CCC(c3cccc4nc(NC(=O)[C@H]5CC5(F)F)nn34)CC2)C1 [Compound 8-9] | > 10000 nM | 3670 nM | 1330 nM | 52 nM |
| N#CCN1CC2(CCC(c3cccc4nc(NC(=O)[C@@H]5CC5(F)F)nn34)CC2)C1 [Compound 9-6] | > 10000 nM | 1170 nM | 1390 nM | 432 nM |
